# Data published in paper PMC8151276, “An Integrated Approach toward NanoBRET Tracers for Analysis of GPCR Ligand Engagement” (Molecules, 2021).
# Key:
# Assay type in all cases: binding
# AGTR2 = biological target: T1, AGTR2 (Homo sapiens, UniProt P50052); assay: NanoBRET screen HiBiT-AGTR2 in HEK293
# T1 construct: purchased Promega (in-house HiBiT-GPCR construct library, NanoBRET)
# T1 sequence (P50052 1-363): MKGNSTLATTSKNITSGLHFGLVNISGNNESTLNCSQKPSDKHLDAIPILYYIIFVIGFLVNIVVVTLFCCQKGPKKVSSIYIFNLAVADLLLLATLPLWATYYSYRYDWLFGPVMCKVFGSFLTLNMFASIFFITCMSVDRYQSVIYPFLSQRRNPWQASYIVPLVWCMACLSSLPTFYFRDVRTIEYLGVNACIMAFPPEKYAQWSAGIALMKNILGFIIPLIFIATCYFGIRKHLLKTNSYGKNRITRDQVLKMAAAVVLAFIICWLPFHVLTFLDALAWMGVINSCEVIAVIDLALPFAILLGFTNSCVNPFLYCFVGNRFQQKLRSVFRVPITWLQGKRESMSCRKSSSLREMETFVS
# Experimental: (§1) Each tracer candidate was screened across the entire library of HiBiT-GPCR constructs using NanoBRET as the detection modality. As depicted in Figure 4A, the specificity of interactions was evaluated through decrease in BRET due to competitive displacement of a bound tracer by excess parental compound. Each tracer was analyzed for binding to each HiBiT-GPCR fusion in the absence and in the presence of competing parental compound. Briefly, HEK293 cells were transfected with HiBiT-GPCR constructs diluted into promoterless DNA to reduce expression and maximize translocation to the cell surface. Each tracer candidate was then screened at concentrations of 1 μM and 0.1 μM across cells expressing these fusions. Cells were treated for 1.5 h with tracer either alone or in the presence of 20 μM competing parental compound (i.e., control). BRET was measured upon addition of purified LgBiT and subsequent complementation with HiBiT genetically fused to a GPCR. The specificity of interactions was assessed through a decrease in BRET signal due to competitive displacement of the bound tracer. To further gauge the robustness of these interactions, the fold response over the control (i.e., BRETtracer/BRETcontrol) was calculated. We chose a 1.5-fold response, which translates to ≥7-fold signal over noise as the minimal threshold required to score an interaction as positive. […]. Below we highlight the screening results obtained for our exemplary fluorescent tracers based on Clozapine, Amitriptyline and AZD1283.
# (§2) HiBiT-GPCR DNA constructs were diluted in 10 mM Tris pH 8 to a final concentration of 0.01 μg/μL, arrayed in 96-well plates and stored at −20 °C. For transfection, HEK293 cells were suspended in Opti-MEM (without phenol red) supplemented with 2% fetal bovine serum (Seradigm) and 100 units/mL penicillin–streptomycin (Gibco) at a final concentration of 220,000 cells/mL and dispensed into white 96-well plates at 90 μL/well. Subsequent transfections and screens were carried using an Agilent Bravo Automated Liquid Handling Platform. First, the 96-well HiBiT DNA arrays were diluted 25-fold in Opti-MEM (without serum or phenol red) to a final concentration of 0.0004 μg/μL and 20 μL of the diluted DNAs were transferred into new 96-well plates. Next, promoterless carrier DNA (1 μg/μL) was diluted 25-fold (0.04 μg/μL) and then dispensed into the diluted arrays at 20 μL/well. Following brief mixing, Viafect transfection reagent (Promega) diluted 16-fold into Opti-MEM was dispensed into the plates at 40 μL/well. After mixing by pipetting, plates were incubated for 10 min on the pipetting station deck. The DNA-transfection reagent complexes were then added to plates containing cells. To facilitate the screen, 10 μL of DNA-transfection reagent complexes were added in duplicates to the top 4 and bottom 4 rows, resulting in two identical 48-well arrays per plate. Plates with transfected cells were incubated for 18–20 h at 37 °C/5% CO2. A screen of each tracer across the entire library using two different concentrations requires duplicate plates of transfected cells. Depending on the number of tracers being screened, transfections can be scaled up using the same ratios. The next day, for each tracer, four 20× screening solutions in tracer dilution buffer (Promega) were prepared: two duplicates at final concentration of 20 μM and two duplicates at a final concentration of 2 μM. A competing unmodified compound was added to one of each duplicate at a final concentration of 400 μM. The four resulting solutions were diluted 4-fold in Opti-MEM without serum or phenol red to generate 5× solutions (5 µM and 0.5 µM tracer +/− 100 μM competing compound). To screen the library, a BioTek MultiFlo FX liquid dispenser was used to dispense 22.5 µL of tracer solution to the top 4 rows and 22.5 µL tracer + competing compound solution to the 4 bottom rows. Plates were briefly mixed on an orbital shaker and incubated for 1.5 h at room temperature. […]
# LTB4R = biological target: T2, LTB4R (Homo sapiens, UniProt Q15722); assay: NanoBRET screen HiBiT-LTB4R in HEK293
# T2 construct: purchased Promega (in-house HiBiT-GPCR construct library, NanoBRET)
# Experimental: as §1, §2
# SSTR1 = biological target: T3, SSTR1 (Homo sapiens, UniProt P30872); assay: NanoBRET screen HiBiT-SSTR1 in HEK293; settings: SSTR1
# T3 construct: purchased Promega (in-house HiBiT-GPCR construct library, NanoBRET)
# Experimental: as §1, §2
# P2RY4 = biological target: T4, P2RY4 (Homo sapiens, UniProt P51582); assay: NanoBRET screen HiBiT-P2RY4 in HEK293
# T4 construct: purchased Promega (in-house HiBiT-GPCR construct library, NanoBRET)
# Experimental: as §1, §2
# CXCR1 = biological target: T5, CXCR1 (Homo sapiens, UniProt P25024); assay: NanoBRET screen HiBiT-CXCR1 in HEK293
# T5 construct: purchased Promega (in-house HiBiT-GPCR construct library, NanoBRET)
# T5 sequence (P25024 1-350): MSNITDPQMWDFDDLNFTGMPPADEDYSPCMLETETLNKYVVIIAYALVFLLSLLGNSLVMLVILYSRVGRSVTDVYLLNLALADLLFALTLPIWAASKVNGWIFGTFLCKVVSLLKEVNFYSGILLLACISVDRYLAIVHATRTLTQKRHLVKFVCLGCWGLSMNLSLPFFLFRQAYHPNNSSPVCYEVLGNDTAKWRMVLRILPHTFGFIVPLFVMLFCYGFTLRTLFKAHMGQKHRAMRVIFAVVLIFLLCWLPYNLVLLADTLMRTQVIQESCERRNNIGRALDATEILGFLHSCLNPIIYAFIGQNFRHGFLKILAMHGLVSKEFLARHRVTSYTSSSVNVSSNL
# Experimental: as §1, §2
# GALR3 = biological target: T6, GALR3 (Homo sapiens, UniProt O60755); assay: NanoBRET screen HiBiT-GALR3 in HEK293; settings: GALR3
# T6 construct: purchased Promega (in-house HiBiT-GPCR construct library, NanoBRET)
# T6 sequence (O60755 1-368): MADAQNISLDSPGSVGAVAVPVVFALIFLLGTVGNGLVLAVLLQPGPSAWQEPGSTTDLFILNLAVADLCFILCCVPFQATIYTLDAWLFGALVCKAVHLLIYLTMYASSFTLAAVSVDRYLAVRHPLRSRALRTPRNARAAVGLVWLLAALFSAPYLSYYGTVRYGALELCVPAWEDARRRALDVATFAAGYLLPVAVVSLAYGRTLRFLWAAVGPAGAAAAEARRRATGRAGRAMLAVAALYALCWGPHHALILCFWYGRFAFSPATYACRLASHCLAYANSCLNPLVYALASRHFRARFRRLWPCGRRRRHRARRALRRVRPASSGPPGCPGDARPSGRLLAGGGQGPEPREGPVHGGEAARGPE
# Experimental: as §1, §2
# T3 sequence (P30872 whole entry): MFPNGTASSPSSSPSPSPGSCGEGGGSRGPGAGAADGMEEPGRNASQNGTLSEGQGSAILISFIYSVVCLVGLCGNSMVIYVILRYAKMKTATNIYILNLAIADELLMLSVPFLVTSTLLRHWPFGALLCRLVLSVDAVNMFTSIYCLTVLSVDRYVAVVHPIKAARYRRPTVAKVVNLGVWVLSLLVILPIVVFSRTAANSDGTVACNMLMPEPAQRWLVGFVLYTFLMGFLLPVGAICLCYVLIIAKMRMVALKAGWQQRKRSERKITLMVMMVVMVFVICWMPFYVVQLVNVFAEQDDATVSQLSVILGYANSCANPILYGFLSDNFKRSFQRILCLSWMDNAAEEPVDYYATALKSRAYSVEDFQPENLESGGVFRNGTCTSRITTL
# T4 sequence (P51582 whole entry): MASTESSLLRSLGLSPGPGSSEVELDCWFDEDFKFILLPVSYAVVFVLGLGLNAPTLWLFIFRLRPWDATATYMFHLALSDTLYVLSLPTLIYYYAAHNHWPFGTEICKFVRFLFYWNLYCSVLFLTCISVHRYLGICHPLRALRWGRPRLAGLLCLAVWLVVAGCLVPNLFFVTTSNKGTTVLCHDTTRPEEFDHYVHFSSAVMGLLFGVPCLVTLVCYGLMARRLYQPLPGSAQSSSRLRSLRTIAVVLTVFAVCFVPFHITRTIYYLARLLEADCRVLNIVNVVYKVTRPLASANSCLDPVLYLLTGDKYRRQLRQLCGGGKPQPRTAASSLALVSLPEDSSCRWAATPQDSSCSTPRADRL
# T2 sequence (Q15722 whole entry): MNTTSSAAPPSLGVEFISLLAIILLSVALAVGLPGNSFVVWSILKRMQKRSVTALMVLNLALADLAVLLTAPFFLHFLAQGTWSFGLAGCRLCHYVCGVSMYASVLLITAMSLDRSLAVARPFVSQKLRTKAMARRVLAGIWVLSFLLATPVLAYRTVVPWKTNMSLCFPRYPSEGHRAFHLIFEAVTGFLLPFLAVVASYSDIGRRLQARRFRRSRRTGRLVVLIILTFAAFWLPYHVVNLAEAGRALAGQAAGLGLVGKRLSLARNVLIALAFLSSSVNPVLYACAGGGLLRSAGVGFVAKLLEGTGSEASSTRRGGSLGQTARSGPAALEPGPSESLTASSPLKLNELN
SMILES,"NanoBRET Fold Response (AGTR2; AGTR2, tracer 0.1μM)","NanoBRET Fold Response (AGTR2; AGTR2, tracer 1μM)","NanoBRET Fold Response (LTB4R; LTB4R, tracer 0.1μM)","NanoBRET Fold Response (LTB4R; LTB4R, tracer 1μM)",NanoBRET Fold Response (SSTR1; tracer 0.1μM),NanoBRET Fold Response (SSTR1; tracer 1μM),"NanoBRET Fold Response (P2RY4; P2RY4, tracer 0.1μM)","NanoBRET Fold Response (P2RY4; P2RY4, tracer 1μM)","NanoBRET Fold Response (CXCR1; CXCR1, tracer 0.1μM)","NanoBRET Fold Response (CXCR1; CXCR1, tracer 1μM)",NanoBRET Fold Response (GALR3; tracer 0.1μM),NanoBRET Fold Response (GALR3; tracer 1μM),other results
CN1CCN(C2=Nc3cc(Cl)ccc3N(CC(=O)NCCOCCOCCOCCOCCNC(=O)CCc3ccc4n3[B-](F)(F)[N+]3=C(c5ccc[nH]5)C=CC3=C4)c3ccccc32)CC1 [Clozapine-c-2-NB590],–,–,–,–,–,–,–,–,–,–,–,–,"NanoBRET Fold Response (AGTR2; AGTR2, 0.1μM tracer): 0.98; NanoBRET Fold Response (AGTR2; AGTR2, 1μM tracer): 0.98; NanoBRET Fold Response (LTB4R; LTB4R, 0.1μM tracer): 1.05; NanoBRET Fold Response (LTB4R; LTB4R, 1μM tracer): 0.95; NanoBRET Fold Response (SSTR1; 0.1μM tracer): 0.98; NanoBRET Fold Response (SSTR1; 1μM tracer): 1.02; NanoBRET Fold Response (P2RY4; P2RY4, 0.1μM tracer): 1.00; NanoBRET Fold Response (P2RY4; P2RY4, 1μM tracer): 0.95; NanoBRET Fold Response (CXCR1; CXCR1, 0.1μM tracer): 0.99; NanoBRET Fold Response (CXCR1; CXCR1, 1μM tracer): 0.94; NanoBRET Fold Response (GALR3; 0.1μM tracer): 1.01; NanoBRET Fold Response (GALR3; 1μM tracer): 1.04"
COc1ccccc1N1CCN(CCCCN2C(=O)c3ccc(CNC(=O)CCOCCNC(=O)c4ccc(CNC(=O)CCc5ccc6n5[B-](F)(F)[N+]5=C(c7ccc[nH]7)C=CC5=C6)cc4)cc3C2=O)CC1 [NAN-190-3-NB590],0.99,0.90,1.02,1.09,1.03,1.12,0.86,0.82,0.93,0.83,0.97,0.92,–
Cc1nc2n(c(=O)c1CCN1CCC(c3noc4cc(F)ccc34)CC1)CCCC2OC(=O)NCCOCCOCCOCCOCCNC(=O)CCc1ccc2n1[B-](F)(F)[N+]1=C(c3ccc[nH]3)C=CC1=C2 (stereo not shown) [Risperidone-2-NB590],1.10,0.94,1.03,1.00,1.08,0.94,1.08,0.90,1.01,0.91,0.90,0.94,–
CN(CCC=C1c2ccccc2CCc2ccccc21)C(=O)CCOCCOCCOCCOCCNC(=O)CCc1ccc2n1[B-](F)(F)[N+]1=C(c3ccc[nH]3)C=CC1=C2 [Amitriptyline-e-2-NB590],–,–,–,–,–,–,–,–,–,–,–,–,NanoBRET Fold Response (AGTR2; tracer at 1μM): 0.97; NanoBRET Fold Response (LTB4R; tracer at 1μM): 1.03; NanoBRET Fold Response (P2RY4; tracer at 1μM): 1.04; NanoBRET Fold Response (CXCR1; tracer at 1μM): 0.93
